The results in this text go back to patent US20250084128A1, “ANTIVIRAL […]-STAPLED SARS-CoV-2 PEPTIDE-C[…] USES THEREOF” (priority 2021, published 2025).

In this assay the test system is pseudotyped SARS-CoV-2 virus. The format is cell-based.
On to “DISGINASVVNIQK8IDRLNEXAKNLNESLIDLQELGK [SEQ ID NO: 11]”, for which the differential antiviral activity result was “little to no activity”.

Turning to “DISGINASVVNIQKEI8RLNEVAXNLNESLIDLQELGK [SEQ ID NO: 13]”, the differential antiviral activity result was “moderate activity”.

Consider “DISGINASVVNIQKEID8LNEVAKXLNESLIDLQELGK [SEQ ID NO: 14]”, for which the differential antiviral activity result was “little to no activity”.

As to “DISGINASVVNIQKEIDR8NEVAKNXNESLIDLQELGK [SEQ ID NO: 15]”, the differential antiviral activity result is “little to no activity”.

On to “DISGINASVVNIQKEIDRL8EVAKNLXESLIDLQELGK [SEQ ID NO: 16]”, for which the differential antiviral activity result was “moderate activity”.
